# Literature values, collected in patent publication US8163058B2 (Whitehurst Associates, Inc., priority 2009, dated 2012).
# Conditions: prior art description
structure (smiles),measurement,value
"CCCCNP(N)(N)=S [NBPT, N-(n-butyl) thiophosphoric triamide]",Hydrolytic stability,undergoes hydrolysis
same,Thermal stability,thermally unstable
